Measured values reported in BindingDB's records for doi:10.1021/jm00048a016 (National Cancer Institute-Frederick, 1994).
pEC50: −log10 of the molar value.

Biological target: Gastrin/cholecystokinin type B receptor (Cavia porcellus)
Assay: Tested for the 50% inhibition level against [125I]- gastrin binding to guinea pig gastric glands

| SMILES | pEC50 |
| --- | --- |
| CSCC[C@H](NC(=O)[C@H](Cc1c[nH]c2ccccc12)NC(=O)CCC(=O)N(Cc1ccccc1)N=NCCCl)C(=O)N[C@@H](CC(=O)O)C(=O)N[C@@H](Cc1ccccc1)C(N)=O [CBS-4] | 6.89 |
| CSCC[C@H](NC(=O)[C@H](Cc1c[nH]c2ccccc12)NC(=O)CCNC(=O)CCC(=O)N(Cc1ccccc1)N=NCCCl)C(=O)N[C@@H](CC(=O)O)C(=O)N[C@@H](Cc1ccccc1)C(N)=O [CBS-5] | 7.10 |
